Here are results for 4 molecules from US9428758B2 (priority 2011, dated 2016).

“Also recorded” adds a separate entry of the source.

Test [1] has as its system mitochondrial membrane potential (ψmito) in BY4743 yeast cells. Type of test: cell-based.
In the next test the test system is yeast cells. The note with it: cited from earlier work.
The subject of another test is BY4743 yeast cells. Type of test: cell-based.
The subject of another test is Arabidopsis seedlings. On the set-up: species or system Arabidopsis thaliana. The note with it: in vivo.

With `C/C=C\C(=O)O[C@@H]1C[C@H]2O[C@@H]3C=C(C)C(=O)C[C@]3(C)[C@]1(C)[C@]21CO1` [Tcin, trichothecin], the “change of ψmito with increasing concentrations of Tcin” value in test [1] is “did not change much”. For the same molecule, the IC50 in the test on yeast cells is 2500 nM. Moreover, in the test on BY4743 yeast cells, the “growth against Tcin” value is “increasingly resistant to Tcin”, the “growth against Tcin relative to cells carrying the vector alone” value is “more sensitive to Tcin” and the “growth against Tcin relative to cells containing the vector alone” value is on record as “provided resistance”. In the test with Arabidopsis seedlings, the “effect on root growth of the wild type” value was “severely limited root growth; also recorded: severely restricts root initiation and elongation”.
Regarding `COc1ccc(C[C@H]2NC[C@H](O)[C@H]2OC(C)=O)cc1` [anisomycin], the “shift in growth sensitivity relative to cells carrying the vector alone” value in the test with BY4743 yeast cells was “no significant shift in growth sensitivity”.
On the same count and under the same terms, the entry for `O=C(N[C@H](CO)[C@H](O)c1ccc([N+](=O)[O-])cc1)C(Cl)Cl` [chloramphenicol] is “no significant shift in growth sensitivity”; for `C[C@@H]1C[C@@H]([C@H](O)CC2CC(=O)NC(=O)C2)C(=O)[C@@H](C)C1` [cycloheximide] it is “no significant shift in growth sensitivity”.
